According to the kinase profiling compilation of Christmann-Franck et al. (2016):

Legend:
Assay in all cases: radiometric filter-binding kinase assay, Kinase HotSpot
Details in all cases: compound 0.5 µM; ATP 10 µM
PLK1 (human) = PLK1 (human) (UniProt P53350)
BLK (human) = BLK (human) (UniProt P51451)
CDK2 CCNA2 (human) = CDK2 CCNA2 (human) (UniProt P24941+P20248)
MAP2K1 (human) = MAP2K1 (human) (UniProt Q02750)
FES (human) = FES (human) (UniProt P07332)
MKNK2 (human) = MKNK2 (human) (UniProt Q9HBH9)
MLTK (human) = MLTK (human) (UniProt Q9NYL2)
TSSK2 (human) = TSSK2 (human) (UniProt Q96PF2)
PLK2 (human) = PLK2 (human) (UniProt Q9NYY3)
SGK3 (human) = SGK3 (human) (UniProt Q96BR1)
HIPK2 (human) = HIPK2 (human) (UniProt Q9H2X6)
CAMK2B (human) = CAMK2B (human) (UniProt Q13554)
GRK4 (human) = GRK4 (human) (UniProt P32298)
GRK4 (human), sequence (P32298 whole entry, looked up): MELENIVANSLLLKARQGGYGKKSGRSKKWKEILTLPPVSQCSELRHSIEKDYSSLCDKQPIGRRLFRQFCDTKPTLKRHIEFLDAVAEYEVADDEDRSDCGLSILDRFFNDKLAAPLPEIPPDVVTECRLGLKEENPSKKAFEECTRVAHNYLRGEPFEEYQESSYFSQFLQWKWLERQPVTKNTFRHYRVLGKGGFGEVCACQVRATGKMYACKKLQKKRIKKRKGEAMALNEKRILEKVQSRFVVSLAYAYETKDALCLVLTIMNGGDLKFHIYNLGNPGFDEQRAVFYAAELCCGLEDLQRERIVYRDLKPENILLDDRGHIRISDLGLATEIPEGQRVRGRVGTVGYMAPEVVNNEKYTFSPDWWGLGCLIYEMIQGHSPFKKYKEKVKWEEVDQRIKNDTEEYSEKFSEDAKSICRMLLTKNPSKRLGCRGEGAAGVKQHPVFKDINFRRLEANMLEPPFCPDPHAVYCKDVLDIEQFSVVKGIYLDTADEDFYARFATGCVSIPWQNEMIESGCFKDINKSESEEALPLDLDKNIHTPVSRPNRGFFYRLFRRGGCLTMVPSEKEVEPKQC

SIK2 (human) = SIK2 (human) (UniProt Q9H0K1)
CDK4 CCND3 (human) = CDK4 CCND3 (human) (UniProt P30281+P11802)
MAPK13 (human) = MAPK13 (human) (UniProt O15264)
EPHA3 (human) = EPHA3 (human) (UniProt P29320)
RPS6KA6 KD1 KD2 (human) = RPS6KA6 KD1 KD2 (human) (UniProt Q9UK32)
RPS6KA6 KD1 KD2 (human), sequence (Q9UK32 whole entry, looked up): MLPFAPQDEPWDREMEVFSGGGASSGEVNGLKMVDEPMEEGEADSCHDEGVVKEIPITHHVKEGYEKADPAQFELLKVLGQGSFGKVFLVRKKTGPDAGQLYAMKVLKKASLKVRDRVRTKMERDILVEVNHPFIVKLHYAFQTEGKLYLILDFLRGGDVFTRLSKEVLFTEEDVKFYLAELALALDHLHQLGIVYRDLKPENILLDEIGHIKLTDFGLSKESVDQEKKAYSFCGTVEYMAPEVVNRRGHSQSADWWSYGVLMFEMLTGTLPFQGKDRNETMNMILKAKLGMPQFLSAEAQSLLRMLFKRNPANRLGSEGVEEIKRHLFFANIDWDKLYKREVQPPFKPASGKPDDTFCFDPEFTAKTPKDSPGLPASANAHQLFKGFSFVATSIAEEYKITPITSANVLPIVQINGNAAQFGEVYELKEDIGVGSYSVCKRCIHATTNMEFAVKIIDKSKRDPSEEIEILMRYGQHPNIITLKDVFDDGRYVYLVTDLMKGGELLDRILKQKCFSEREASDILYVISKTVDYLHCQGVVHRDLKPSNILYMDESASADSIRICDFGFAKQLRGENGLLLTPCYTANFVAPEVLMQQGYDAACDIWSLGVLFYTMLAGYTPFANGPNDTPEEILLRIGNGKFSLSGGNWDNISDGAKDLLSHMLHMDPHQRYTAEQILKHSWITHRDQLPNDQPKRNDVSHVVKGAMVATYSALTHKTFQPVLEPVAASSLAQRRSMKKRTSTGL

RIPK2 (human) = RIPK2 (human) (UniProt O43353)
NTRK2 (human) = NTRK2 (human) (UniProt Q16620)
PIM2 (human) = PIM2 (human) (UniProt Q9P1W9)
PIM2 (human), sequence (Q9P1W9 whole entry, looked up): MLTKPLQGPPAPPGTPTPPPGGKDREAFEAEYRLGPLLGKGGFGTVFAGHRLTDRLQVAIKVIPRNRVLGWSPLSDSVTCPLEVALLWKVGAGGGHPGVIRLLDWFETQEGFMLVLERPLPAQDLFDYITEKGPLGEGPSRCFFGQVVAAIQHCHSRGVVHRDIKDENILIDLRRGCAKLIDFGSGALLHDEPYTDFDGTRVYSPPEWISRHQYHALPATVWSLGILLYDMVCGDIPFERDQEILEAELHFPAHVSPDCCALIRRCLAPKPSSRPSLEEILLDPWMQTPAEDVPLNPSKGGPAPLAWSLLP

CDK1 CCNB1 (human) = CDK1 CCNB1 (human) (UniProt P06493+P14635)
CSNK1G1 (human) = CSNK1G1 (human) (UniProt Q9HCP0)
NEK2 (human) = NEK2 (human) (UniProt P51955)
SRPK1 (human) = SRPK1 (human) (UniProt Q96SB4)
CHEK2 (human) = CHEK2 (human) (UniProt O96017)
CHEK2 (human), sequence (O96017 whole entry, looked up): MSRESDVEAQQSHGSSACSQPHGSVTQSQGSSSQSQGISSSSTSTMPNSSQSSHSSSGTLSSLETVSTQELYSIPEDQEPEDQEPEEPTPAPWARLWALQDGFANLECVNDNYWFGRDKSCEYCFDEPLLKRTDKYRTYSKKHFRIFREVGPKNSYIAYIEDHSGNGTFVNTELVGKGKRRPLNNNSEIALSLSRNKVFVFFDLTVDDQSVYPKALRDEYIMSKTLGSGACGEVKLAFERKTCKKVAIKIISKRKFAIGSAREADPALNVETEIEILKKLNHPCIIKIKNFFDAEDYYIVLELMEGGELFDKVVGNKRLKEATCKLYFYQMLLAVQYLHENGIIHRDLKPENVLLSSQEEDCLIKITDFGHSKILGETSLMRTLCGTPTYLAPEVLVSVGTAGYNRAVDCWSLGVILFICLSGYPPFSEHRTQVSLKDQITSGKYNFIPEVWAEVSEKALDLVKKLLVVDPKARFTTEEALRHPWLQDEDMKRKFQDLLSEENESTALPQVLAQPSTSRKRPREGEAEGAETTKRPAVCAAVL

FGR (human) = FGR (human) (UniProt P09769)
ABL2 (human) = ABL2 (human) (UniProt P42684)
MARK1 (human) = MARK1 (human) (UniProt Q9P0L2)
PRKCH (human) = PRKCH (human) (UniProt P24723)
IKBKB (human) = IKBKB (human) (UniProt O14920)
MAP4K4 (human) = MAP4K4 (human) (UniProt O95819)
CDK9 CCNK (human) = CDK9 CCNK (human) (UniProt O75909+P50750)
CDK9 CCNK (human), sequence (O75909 whole entry, looked up): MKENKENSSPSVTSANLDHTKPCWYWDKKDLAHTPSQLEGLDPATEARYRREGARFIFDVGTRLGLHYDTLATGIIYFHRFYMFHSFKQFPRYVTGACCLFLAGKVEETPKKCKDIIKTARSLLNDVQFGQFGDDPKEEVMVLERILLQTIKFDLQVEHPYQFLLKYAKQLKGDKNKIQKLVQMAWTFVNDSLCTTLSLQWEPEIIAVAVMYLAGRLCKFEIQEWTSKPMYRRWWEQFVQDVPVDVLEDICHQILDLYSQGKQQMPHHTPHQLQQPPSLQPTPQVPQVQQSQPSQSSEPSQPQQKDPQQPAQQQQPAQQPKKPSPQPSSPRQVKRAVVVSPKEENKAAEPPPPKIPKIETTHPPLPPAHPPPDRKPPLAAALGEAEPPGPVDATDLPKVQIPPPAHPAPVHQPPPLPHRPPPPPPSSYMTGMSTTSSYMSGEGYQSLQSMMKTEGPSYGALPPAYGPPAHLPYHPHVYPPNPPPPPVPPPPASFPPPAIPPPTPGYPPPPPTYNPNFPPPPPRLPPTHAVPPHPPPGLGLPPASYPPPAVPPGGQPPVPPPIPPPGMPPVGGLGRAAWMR
CDK9 CCNK (human), sequence (P50750 whole entry, looked up): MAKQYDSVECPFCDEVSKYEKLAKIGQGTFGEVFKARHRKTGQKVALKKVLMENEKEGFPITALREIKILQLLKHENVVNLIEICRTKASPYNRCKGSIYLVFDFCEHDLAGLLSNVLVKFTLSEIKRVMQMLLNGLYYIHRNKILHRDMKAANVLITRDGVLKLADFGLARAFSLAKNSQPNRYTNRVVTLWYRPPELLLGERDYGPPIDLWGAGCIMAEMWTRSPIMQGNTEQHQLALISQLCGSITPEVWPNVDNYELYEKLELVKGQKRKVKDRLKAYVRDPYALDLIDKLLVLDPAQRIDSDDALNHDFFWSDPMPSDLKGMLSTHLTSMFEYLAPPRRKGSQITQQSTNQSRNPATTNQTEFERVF

ZAP70 (human) = ZAP70 (human) (UniProt P43403)
PTK6 (human) = PTK6 (human) (UniProt Q13882)
TYRO3 (human) = TYRO3 (human) (UniProt Q06418)
TYRO3 (human), sequence (Q06418 whole entry, looked up): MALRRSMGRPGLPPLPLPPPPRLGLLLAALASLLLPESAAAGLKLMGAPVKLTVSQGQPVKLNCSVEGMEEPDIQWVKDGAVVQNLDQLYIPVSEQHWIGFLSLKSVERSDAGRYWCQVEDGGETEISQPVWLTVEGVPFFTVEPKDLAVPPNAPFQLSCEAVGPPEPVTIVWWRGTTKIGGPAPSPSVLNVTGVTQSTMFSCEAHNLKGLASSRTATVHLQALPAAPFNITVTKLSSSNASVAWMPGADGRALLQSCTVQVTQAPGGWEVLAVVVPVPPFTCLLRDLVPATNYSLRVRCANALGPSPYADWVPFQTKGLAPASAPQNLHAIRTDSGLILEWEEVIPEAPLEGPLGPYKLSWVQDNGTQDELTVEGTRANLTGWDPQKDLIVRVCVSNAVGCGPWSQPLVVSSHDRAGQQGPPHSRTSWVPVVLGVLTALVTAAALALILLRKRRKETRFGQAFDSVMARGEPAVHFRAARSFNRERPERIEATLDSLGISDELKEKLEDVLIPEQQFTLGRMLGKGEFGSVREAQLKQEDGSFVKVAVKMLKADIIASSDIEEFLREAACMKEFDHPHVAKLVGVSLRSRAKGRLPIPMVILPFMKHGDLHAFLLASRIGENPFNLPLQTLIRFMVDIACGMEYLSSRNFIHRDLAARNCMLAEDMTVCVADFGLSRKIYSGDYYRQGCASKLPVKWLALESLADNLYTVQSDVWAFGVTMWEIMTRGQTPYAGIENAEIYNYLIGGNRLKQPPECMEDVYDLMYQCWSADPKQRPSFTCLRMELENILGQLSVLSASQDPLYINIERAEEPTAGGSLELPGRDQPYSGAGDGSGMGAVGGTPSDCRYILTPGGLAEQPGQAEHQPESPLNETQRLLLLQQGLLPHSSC

PRKACA (human) = PRKACA (human) (UniProt P17612)
NUAK2 (human) = NUAK2 (human) (UniProt Q9H093)
ACVR1B (human) = ACVR1B (human) (UniProt P36896)
ACVR1B (human), sequence (P36896 whole entry, looked up): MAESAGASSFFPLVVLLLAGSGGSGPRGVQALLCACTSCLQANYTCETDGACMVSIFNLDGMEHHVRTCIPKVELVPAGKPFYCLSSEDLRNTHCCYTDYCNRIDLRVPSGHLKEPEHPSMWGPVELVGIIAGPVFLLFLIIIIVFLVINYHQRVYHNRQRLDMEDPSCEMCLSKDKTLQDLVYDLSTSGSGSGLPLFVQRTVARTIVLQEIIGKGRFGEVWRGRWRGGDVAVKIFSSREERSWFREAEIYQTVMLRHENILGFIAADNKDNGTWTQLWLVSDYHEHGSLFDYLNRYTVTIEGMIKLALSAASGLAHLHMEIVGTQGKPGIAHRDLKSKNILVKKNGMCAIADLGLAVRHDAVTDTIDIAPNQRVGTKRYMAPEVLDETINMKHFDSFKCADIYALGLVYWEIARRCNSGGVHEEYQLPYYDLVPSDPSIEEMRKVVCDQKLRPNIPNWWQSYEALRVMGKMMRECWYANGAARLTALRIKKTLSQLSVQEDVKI

CHEK1 (human) = CHEK1 (human) (UniProt O14757)
LRRK2 (human) = LRRK2 (human) (UniProt Q5S007)
CHUK (human) = CHUK (human) (UniProt O15111)

CDK2 CCNA2 (human), sequence (P20248 whole entry, looked up, other chains not shown): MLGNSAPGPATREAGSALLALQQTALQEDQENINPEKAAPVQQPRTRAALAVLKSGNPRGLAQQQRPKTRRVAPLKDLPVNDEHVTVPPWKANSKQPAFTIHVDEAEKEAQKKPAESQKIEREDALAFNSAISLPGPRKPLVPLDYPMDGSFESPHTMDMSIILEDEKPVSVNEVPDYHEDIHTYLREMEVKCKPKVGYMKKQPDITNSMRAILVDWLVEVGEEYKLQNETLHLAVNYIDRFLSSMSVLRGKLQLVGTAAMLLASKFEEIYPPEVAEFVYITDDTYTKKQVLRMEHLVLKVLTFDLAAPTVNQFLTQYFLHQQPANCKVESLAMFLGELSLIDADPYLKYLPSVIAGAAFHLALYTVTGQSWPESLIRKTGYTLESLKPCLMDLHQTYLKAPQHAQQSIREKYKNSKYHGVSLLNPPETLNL

`CCCCc1c(-c2ccc(O)cc2)[nH]c2nccnc12` showed a residual activity (PLK1 (human)) of 96.6%, a residual activity (BLK (human)) of 85% and a residual activity (CDK2 CCNA2 (human)) of 22.4%. The residual activity (MAP2K1 (human)) was 94.8%, the residual activity (FES (human)) was 64.5% and the residual activity (MKNK2 (human)) was 107%. For the same molecule, the residual activity (MLTK (human)) was 71%, the residual activity (TSSK2 (human)) was 96.7% and the residual activity (PLK2 (human)) was 83.9%. For the same molecule, the residual activity (SGK3 (human)) was 95.3%, the residual activity (HIPK2 (human)) was 88.5% and the residual activity (CAMK2B (human)) was 97%. It also gave a residual activity (GRK4 (human)) of 101%, a residual activity (SIK2 (human)) of 95.9% and a residual activity (CDK4 CCND3 (human)) of 71%. It also gave a residual activity (MAPK13 (human)) of 101%, a residual activity (EPHA3 (human)) of 95% and a residual activity (RPS6KA6 KD1 KD2 (human)) of 72.7%. For the same molecule, the residual activity (RIPK2 (human)) was 58.6%, the residual activity (NTRK2 (human)) was 73.7% and the residual activity (PIM2 (human)) was 121%. It also gave a residual activity (CDK1 CCNB1 (human)) of 45.2%, a residual activity (CSNK1G1 (human)) of 93.1% and a residual activity (NEK2 (human)) of 106%. It also gave a residual activity (SRPK1 (human)) of 101%, a residual activity (CHEK2 (human)) of 61.1% and a residual activity (FGR (human)) of 63%. The residual activity (ABL2 (human)) was 64.9%, the residual activity (MARK1 (human)) was 91.9% and the residual activity (PRKCH (human)) was 90.5%. It also gave a residual activity (IKBKB (human)) of 103%, a residual activity (MAP4K4 (human)) of 60.9% and a residual activity (CDK9 CCNK (human)) of 42.8%. The residual activity (ZAP70 (human)) was 94.4%, the residual activity (PTK6 (human)) was 29.7% and the residual activity (TYRO3 (human)) was 99.6%. For the same molecule, the residual activity (PRKACA (human)) was 89.7%, the residual activity (NUAK2 (human)) was 64.8% and the residual activity (ACVR1B (human)) was 117%. It also gave a residual activity (CHEK1 (human)) of 92.9%, a residual activity (LRRK2 (human)) of 80% and a residual activity (CHUK (human)) of 77.6%.

In the case of `COc1cc2c(cc1OC)-c1[nH]nc(Nc3cccc(F)c3)c1C2`, the residual activity (PLK1 (human)) is reported as 102%, the residual activity (BLK (human)) is reported as 74.2% and the residual activity (CDK2 CCNA2 (human)) is reported as 87.5%. For the same molecule, the residual activity (MAP2K1 (human)) was 90.1%, the residual activity (FES (human)) was 95.6% and the residual activity (MKNK2 (human)) was 91.5%. The residual activity (MLTK (human)) was 44.7%, the residual activity (TSSK2 (human)) was 75.1% and the residual activity (PLK2 (human)) was 97.1%. For the same molecule, the residual activity (SGK3 (human)) was 92.7%, the residual activity (HIPK2 (human)) was 103% and the residual activity (CAMK2B (human)) was 101%. For the same molecule, the residual activity (GRK4 (human)) was 97.1%, the residual activity (SIK2 (human)) was 38.6% and the residual activity (CDK4 CCND3 (human)) was 95.4%. It also gave a residual activity (MAPK13 (human)) of 99.7%, a residual activity (EPHA3 (human)) of 94.5% and a residual activity (RPS6KA6 KD1 KD2 (human)) of 93.6%. The residual activity (RIPK2 (human)) was 76.3%, the residual activity (NTRK2 (human)) was 102% and the residual activity (PIM2 (human)) was 119%. The residual activity (CDK1 CCNB1 (human)) was 101%, the residual activity (CSNK1G1 (human)) was 77.8% and the residual activity (NEK2 (human)) was 93%. It also gave a residual activity (SRPK1 (human)) of 101%, a residual activity (CHEK2 (human)) of 96.5% and a residual activity (FGR (human)) of 47.2%. For the same molecule, the residual activity (ABL2 (human)) was 21.4%, the residual activity (MARK1 (human)) was 96.1% and the residual activity (PRKCH (human)) was 92.1%. It also gave a residual activity (IKBKB (human)) of 98.2%, a residual activity (MAP4K4 (human)) of 55.5% and a residual activity (CDK9 CCNK (human)) of 91.9%. The residual activity (ZAP70 (human)) was 95.3%, the residual activity (PTK6 (human)) was 81% and the residual activity (TYRO3 (human)) was 97.2%. The residual activity (PRKACA (human)) was 92.8%, the residual activity (NUAK2 (human)) was 94.6% and the residual activity (ACVR1B (human)) was 92.9%. For the same molecule, the residual activity (CHEK1 (human)) was 92.4%, the residual activity (LRRK2 (human)) was 82.3% and the residual activity (CHUK (human)) was 91.4%.

`Cc1cc(Nc2nc(-c3ccccc3)nc3ccccc23)n[nH]1` showed a residual activity (PLK1 (human)) of 97.1%, a residual activity (BLK (human)) of 56.2% and a residual activity (CDK2 CCNA2 (human)) of 96.9%. For the same molecule, the residual activity (MAP2K1 (human)) was 91.6%, the residual activity (FES (human)) was 94.7% and the residual activity (MKNK2 (human)) was 71.8%. The residual activity (MLTK (human)) was 87.1%, the residual activity (TSSK2 (human)) was 105% and the residual activity (PLK2 (human)) was 110%. For the same molecule, the residual activity (SGK3 (human)) was 104%, the residual activity (HIPK2 (human)) was 101% and the residual activity (CAMK2B (human)) was 97.7%. For the same molecule, the residual activity (GRK4 (human)) was 92.1%, the residual activity (SIK2 (human)) was 99.6% and the residual activity (CDK4 CCND3 (human)) was 94.4%. The residual activity (MAPK13 (human)) was 106%, the residual activity (EPHA3 (human)) was 88.9% and the residual activity (RPS6KA6 KD1 KD2 (human)) was 56.3%. It also gave a residual activity (RIPK2 (human)) of 70.4%, a residual activity (NTRK2 (human)) of 4.37% and a residual activity (PIM2 (human)) of 92.7%. For the same molecule, the residual activity (CDK1 CCNB1 (human)) was 76%, the residual activity (CSNK1G1 (human)) was 75.7% and the residual activity (NEK2 (human)) was 99.3%. The residual activity (SRPK1 (human)) was 90.1%, the residual activity (CHEK2 (human)) was 31.3% and the residual activity (FGR (human)) was 54.8%. It also gave a residual activity (ABL2 (human)) of 42.5%, a residual activity (MARK1 (human)) of 93.7% and a residual activity (PRKCH (human)) of 89.6%. The residual activity (IKBKB (human)) was 69.8%, the residual activity (MAP4K4 (human)) was 25.7% and the residual activity (CDK9 CCNK (human)) was 89.8%. For the same molecule, the residual activity (ZAP70 (human)) was 105%, the residual activity (PTK6 (human)) was 61.6% and the residual activity (TYRO3 (human)) was 94.2%. The residual activity (PRKACA (human)) was 97.2%, the residual activity (NUAK2 (human)) was 71.1% and the residual activity (ACVR1B (human)) was 103%. For the same molecule, the residual activity (CHEK1 (human)) was 69.1%, the residual activity (LRRK2 (human)) was 88.3% and the residual activity (CHUK (human)) was 96.5%.

`CCOc1cc2ncnc(Nc3cccc(Br)c3)c2cc1OCC` gave a residual activity (PLK1 (human)) of 93.6%, a residual activity (BLK (human)) of 74.9% and a residual activity (CDK2 CCNA2 (human)) of 91.9%. For the same molecule, the residual activity (MAP2K1 (human)) was 96.1%, the residual activity (FES (human)) was 96.8% and the residual activity (MKNK2 (human)) was 34.3%. It also gave a residual activity (MLTK (human)) of 89.8%, a residual activity (TSSK2 (human)) of 104% and a residual activity (PLK2 (human)) of 99.8%. It also gave a residual activity (SGK3 (human)) of 96.7%, a residual activity (HIPK2 (human)) of 96.8% and a residual activity (CAMK2B (human)) of 98.8%. The residual activity (GRK4 (human)) was 96.2%, the residual activity (SIK2 (human)) was 109% and the residual activity (CDK4 CCND3 (human)) was 97.8%. The residual activity (MAPK13 (human)) was 96.7%, the residual activity (EPHA3 (human)) was 83.3% and the residual activity (RPS6KA6 KD1 KD2 (human)) was 93.3%. The residual activity (RIPK2 (human)) was 39.8%, the residual activity (NTRK2 (human)) was 105% and the residual activity (PIM2 (human)) was 98.9%. It also gave a residual activity (CDK1 CCNB1 (human)) of 80.8%, a residual activity (CSNK1G1 (human)) of 107% and a residual activity (NEK2 (human)) of 98.7%. The residual activity (SRPK1 (human)) was 102%, the residual activity (CHEK2 (human)) was 92% and the residual activity (FGR (human)) was 61.9%. The residual activity (ABL2 (human)) was 52.1%, the residual activity (MARK1 (human)) was 90.3% and the residual activity (PRKCH (human)) was 94.9%. The residual activity (IKBKB (human)) was 102%, the residual activity (MAP4K4 (human)) was 67% and the residual activity (CDK9 CCNK (human)) was 102%. The residual activity (ZAP70 (human)) was 105%, the residual activity (PTK6 (human)) was 27.7% and the residual activity (TYRO3 (human)) was 92.2%. The residual activity (PRKACA (human)) was 98.9%, the residual activity (NUAK2 (human)) was 89.7% and the residual activity (ACVR1B (human)) was 101%. For the same molecule, the residual activity (CHEK1 (human)) was 115%, the residual activity (LRRK2 (human)) was 78.7% and the residual activity (CHUK (human)) was 105%.
